Reference: publication PMC11392399, “The final walk with preptin” (PLOS ONE, 2024)
No end group written: not given here.

Experiments:
IR-A in IM-9 lymphocytes = test: Competitive binding assay for IR-A with [125I]-monoiodotyrosyl-TyrA14-insulin; design: species or system human; conditions: tracer 125I-insulin, only at the concentrations > 10^-6M, n ≥ 3
From the text: (§1) We also tested whether non-labeled preptins can bind to any of receptors for IGF2 (i.e. IR, IGF1R and IGF2R) in competitive binding assays, employing ^125I-labeled human insulin, IGF1 or IGF2. To determine binding to the IGF1R, we used mouse fibroblasts transfected with human IGF1R and with deleted mouse IGF1R (R+39 cells), according to Hexnerova et al.. We used non-transfected 3T3 fibroblasts to determine binding to IGF2R, because these cells contain essentially only IGF2R [5] and we used human IM-9 lymphocytes to determine affinity for IR-A [31].
(§2) Binding affinities of ligands for IGF1R were determined with [^125I]-Iodotyrosyl-IGF1 (2,614 Ci/mmol) prepared in the IOCB radioisotope laboratory by a procedure described in Kertisova et al.. Binding affinities for IR-A were determined with [^125I]-monoiodotyrosyl-TyrA14-insulin (2,200 Ci/mmol), prepared as described by Asai et al.. […]
(§3) The dissociation constant (Kd) values were determined with GraphPad Prism 8, using a nonlinear regression method, a one-site fitting program and considering the potential depletion of free ligand. […] Relative binding affinities were calculated as (Kd of the native hormone/Kd of analog) × 100 (in %). The relative binding affinity S.D. values of analogs were calculated as S.D. = Kd of the native hormone/Kd of peptide ×100 × √[(S.D. native/Kd native)^2 + (S.D. analog/Kd analog)^2].

[1] = system: intracellular calcium in U-2 OS osteoblasts; test: Changes in intracellular calcium, U-2 OS osteoblasts; assay type: cell-based, human; conditions: U-2 OS cells; 10^−4 M; Fluo-8 fluorescence, (Fmax−F0)/F0; one-way ANOVA
Description: (§4) The day before the experiment, U-2 OS, MC3T3-E1, MIN6 and cAMP-HEK cells were seeded 6 000 (for osteoblastic cell lines U-2 OS, MC3T3-E1), 10 000 (for cAMP-HEK cells) or 30 000 (MIN6) cells per well in a black 384-well format micro plate with transparent bottom (Cat.#: 142761, Nunc, Thermo Fisher Scientific, USA). On the next day, the cultivation media was exchanged for assay buffer, consisting of HBSS (Cat.#: H6648-500ML, Sigma-Aldrich, Merck, Germany), 20 mM HEPES (Cat.#: L0180-100, Biowest, France), 2.5 mM Probenecid (Cat.#: P8761, Sigma-Aldrich, Merck, Germany), adjusted for pH 7.4 and supplemented with 4.77 μM CalciFluor™ Fluo-8, AM (Cat.#: 1345980-40-6, Santa Cruz Biotechnology, USA). After 45 min incubation with assay buffer in 37°C and 5% CO2, the cells were incubated at RT in a dark place for another 15 minutes. After this time, preptin and its analogs were added by the Agilent Bravo Automated Liquid Handling Platform (Agilent Technologies, USA). The kinetics were measured by the Spark® multimode reader from Tecan (Tecan Group Ltd., Switzerland) for 10 min (approximately 45 cycles, excitation 485 nm, emission 535 nm, band width 10 nm). Before each kinetics, the background fluorescence (F0) was measured and the result was calculated as (Fmax−F0)/F0, where Fmax corresponds to the maximum response upon stimulation by the compounds. Each compound was tested in concentration 10^−4 M.

[2] = system: intracellular calcium in MIN6 pancreatic beta cells; test: Changes in intracellular calcium, MIN6 cells; assay type: cell-based, mouse; conditions: 10^−4 M, Fluo-8 fluorescence, (Fmax−F0)/F0, one-way ANOVA
Description: as §4, with “Each compound was tested in concentration 10^−4 M.” left out

[3] = system: human primary osteoblasts; conditions: 8 days, ref [17] Bosetti et al.; cited from earlier work
hBMSC-TERT = test: Osteoblast differentiation of hBMSC-TERT, alkaline phosphatase (ALP) activity assay; assay type: cell-based, human; conditions: for ALP activity normalized to cell viability, compared to unstimulated cells: 100 ng/ml, 500 ng/ml and 1 ug/ml, day 7 of OB differentiation, changes not significant; for osteoblast differentiation of hBMSCs: summary in the conclusions
Description: hBMSC-TERT were plated at a density of 20 000 cells/cm^2 (Alizarin Red S staining) and 5 000 cells/well (ALP activity assay) in MEM medium (Gibco), supplemented with 10 % FBS (Gibco) and 1 % P/S (Gibco). One day after seeding, the medium was replaced with OB induction medium, composed of basal medium, supplemented with 10 mM B-glycerophosphate (Sigma-Aldrich), 10 nM dexamethasone (Sigma-Aldrich), 50 μg/mL vitamin C (Sigma-Aldrich), 10 nM vitamin D3 (Sigma-Aldrich) and treated with 100 ng/ml, 500 ng/ml and 1 ug/ml IGF2, IGF1, IGF2, preptin or vehicle (acetic acid) as a control. The medium was changed every other day for 7 days (ALP activity assay) or 10 days (Alizarin Red S staining).
ALP activity and cell viability assay were quantified at Day 7 of OB differentiation, in order to normalize the ALP activity data to the number of viable cells.
Cell viability assay was measured using a Cell Titer-Blue Assay Reagent (Promega) at fluorescence intensity (579Ex/584Em). ALP activity was detected by absorbance at 405 nm, using p-nitrophenyl phosphate (Sigma-Aldrich) as substrate.

[4] = system: cAMP in U-2 OS osteoblasts; test: Changes in cAMP levels (GloSensor), U-2 OS osteoblasts; assay type: cell-based, human; conditions: 10^−4 M, GloSensor luminescence, (Lmax−L0)/L0, forskolin positive control
Description: Intracellular cAMP concentration was measured using Promega’s Glosensor on osteoblasts U-2 OS, pancreatic β-cells MIN6 and control cAMP-HEK cells (with stable transfection of F22 plasmid as described above). U-2 OS cells were transfected with F22 plasmid (pGloSensor™-22F, Promega, USA, 6.1 μg of plasmid per 1 million cells) using X-tremeGENE (Sigma-Aldrich, Germany). The ratio of plasmid and transfection reagent was 1:3 (plasmid: X-tremeGENE, m/v). The MIN6 cells were transfected with F22 plasmid in the same concentration as U-2 OS using electroporation by the Invitrogen™ Neon™ Transfection System Instrument (Thermo Fisher Scientific, USA, transfection conditions: 1400 V, 20 ms, 1 pulse). […]
After 24 hours (U-2 OS and cAMP-HEK cells) or 48 hours, respectively (MIN6 cells), cultivation media was changed for assay buffer (HBSS buffer with 20 mM HEPES and 2% (v/v) (cAMP-HEK, U-2 OS cells) or 6% (v/v), respectively (MIN6 cells), GloSensor™ reagent stock solution). The plate was incubated in the dark for 1–2 hours at RT and luminescence was measured until a stable signal was observed (L0). […] The luminescence kinetics were measured by Spark® for 30 min. The result was calculated as (Lmax−L0)/L0, where Lmax corresponds to the maximum response upon stimulation by the compounds. […]

[5] = system: phosphorylation of Akt in MC3T3-E1 preosteoblasts; test: Stimulation of phosphorylation of Akt, MC3T3-E1 preosteoblasts; assay type: cell-based, mouse; conditions: 10^-8M, 5 min at RT, Western blot, n = 4, one-way ANOVA
Description: For measuring activation of intracellular signaling pathways, 40 000 of MC3T3-E1, U-2 OS and 3T3-R- cells per well and 100 000 of MIN6 cells per well were seeded in a 24-well plate, two days before stimulation. Cells’ stimulations were done after overnight starvation in a clean culture medium without serum. Cells were stimulated using preptins and their analogs at 10^-8M concentration for 5 min at RT. Cells were washed with PBS and froze immediately. Samples for immunoblots were prepared in Sample lysis buffer (62,5 mM Tris/HCl, 2 % SDS (w/v), 10 % glycerol (v/v), 0,01 % Brom-phenol Blue (w/v), 0,1M DTT, 50mM NaF, 1mM Na3VO4, 0,5 % protease inhibitory complex (v/v), pH 6,8).
Western blots were similarly used to study signaling pathways activated by our preptins in all cell lines mentioned above. Proteins were routinely analyzed using immunoblotting. […] The data are expressed as the contribution of target phosphorylation relative to non-stimulated cells (MC3T3-E1, U-2 OS, 3T3-R- and MIN6). Mean ± S.D. (n = 4) values were calculated. The significance of the changes in stimulation of phosphorylation in relation to unstimulated cells was calculated, using the One-way-ANOVA comparing all preptins and their analogs versus control non-stimulated cells.

[6] = system: intracellular calcium in U-2 OS cells; conditions: previous paper, different method, ref [21]; cited from earlier work
From the text: It is well known that Ca^2+ regulates numerous physiological cellular processes as a second messenger. It plays a vital role in the regulation of cell proliferation, and its increased level is critical for secretagogue-induced insulin release in pancreatic beta cells. […] If preptin or its analogs were proficient insulin secretagogues or had any effect on bone cells, we would e ...

IGF2R = test: Competitive binding assay for IGF2R with [125I]-monoiodotyrosyl-Tyr2-IGF2; design: species or system mouse; conditions: R- cells with IGF2R; tracer 125I-IGF2; n ≥ 3
From the text: as §1, §2, §3

human IGF1R = test: Competitive binding assay for IGF1R with [125I]-Iodotyrosyl-IGF1; conditions: fibroblasts with IGF1R (R+39 cells); tracer 125I-IGF1; n ≥ 3
From the text: as §1, §2, §3

## DVSTPPTVLPDNFPRYPVGKFFQYDTWKQSTQRL [peptide 1, native human preptin]
IR-A in IM-9 lymphocytes
  binding to IR-A: weak binding

## DVSTSQAVLPDDFPRYPVGZFFQYDTWRQSAGRL [peptide 15, Mouse preptin with Aib (Z) at position 20]
[1]
  changes in intracellular calcium relative to non-stimulated cells: significant increase in intracellular calcium levels

## DVTTSQAVLPDDFPRY [peptide 17, Mouse preptin fragment]
[2]
  changes in intracellular calcium relative to non-stimulated cells: completely inhibited calcium secretion

## FPRYPVGKFFQYNTW-NH2 [peptide 18, Mouse preptin fragment, amino acids 13–27, amidated C-end]
[1]
  changes in intracellular calcium relative to non-stimulated cells: significant increase in intracellular calcium levels

## IGF2: insulin-like growth factor 2, comparator hormone
[3]
  change in ALP activity: no significant effects
hBMSC-TERT
  ALP activity normalized to cell viability, compared to unstimulated cells: signs of higher ALP activity
  osteoblast differentiation of hBMSCs: neither preptin nor IGF2 significantly increased

## PVGKFFQYDTWKQSTQRL [peptide 3, Human preptin fragment]
IR-A in IM-9 lymphocytes
  binding to IR-A: weak binding

## TWKQSTQRL-NH2 [peptide 13, Human preptin fragment]
[4]
  changes in cAMP levels relative to non-stimulated cells: significant decrease of cAMP
[5]
  phosphorylation of Akt relative to non-stimulated cells: Significantly lower phosphorylation of Akt

## WKQSTQRL-NH2 [peptide 12, Human preptin fragment]
[5]
  phosphorylation of Akt relative to non-stimulated cells: Significantly lower phosphorylation of Akt

## preptin: 34-amino acid peptide derived from pro-IGF2; species or peptide number not stated at the place (DVSTPPTVLPDNFPRYPVGKFFQYDTWKQSTQRL; Preptin; UniProt P01344 93-126, looked up)
[6]
  changes in intracellular calcium levels: able to induce changes in intracellular calcium levels
[3]
  change in ALP activity: no significant effects
IGF2R
  displacement of native ligand from IGF2R: did not displace native ligands even at the highest concentrations used
Human IGF1R
  displacement of native ligand from IGF1R: did not displace native ligands even at the highest concentrations used
hBMSC-TERT
  ALP activity normalized to cell viability, compared to unstimulated cells: signs of higher ALP activity
  osteoblast differentiation of hBMSCs: neither preptin nor IGF2 significantly increased
